Here are results for 1 molecule from ChEMBL document CHEMBL3886670, “ROR modulators and their uses” (2016).

Structures are written as SMILES. Bounds are passed on as bounds.

For this test, the target named is T1, Nuclear receptor ROR-gamma (Homo sapiens, UniProt P51449).
T1 sequence (P51449 whole entry): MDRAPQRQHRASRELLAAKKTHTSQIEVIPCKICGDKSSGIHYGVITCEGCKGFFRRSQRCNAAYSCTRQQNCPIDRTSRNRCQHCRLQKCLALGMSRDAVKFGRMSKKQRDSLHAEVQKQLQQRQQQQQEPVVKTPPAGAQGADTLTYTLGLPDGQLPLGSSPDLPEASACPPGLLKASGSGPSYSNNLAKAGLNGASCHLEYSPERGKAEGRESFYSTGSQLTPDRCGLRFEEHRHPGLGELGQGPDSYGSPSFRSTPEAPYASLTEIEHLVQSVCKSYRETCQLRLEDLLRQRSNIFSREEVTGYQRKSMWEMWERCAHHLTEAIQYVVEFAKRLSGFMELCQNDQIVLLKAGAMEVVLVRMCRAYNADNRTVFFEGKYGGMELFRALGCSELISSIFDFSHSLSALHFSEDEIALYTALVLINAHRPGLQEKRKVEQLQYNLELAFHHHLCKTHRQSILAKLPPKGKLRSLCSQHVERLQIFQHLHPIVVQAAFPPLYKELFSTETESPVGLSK
Nature of the test: Binding Assay: Compound binding to the human RORγ LBD was assessed using the Human RORγ Assay System (INDIGO Biosciences Inc.) as per manufacturer's instructions. Binding to the RORγ LBD was assessed using gradient concentrations of the indicated compounds in a final concentration of 0.5% DMSO.

As for `CS(=O)(=O)Nc1ccc2c(c1)CCC(=O)N2Cc1ccc(C(O)(C(F)(F)F)C(F)(F)F)cc1`, the IC50 was less than 10 µM.
